A short description of data set [1]: Cytotoxicity against human LN229 cells assessed as concentration required for induction of cell death after 24 hrs by crystal violet staining based light microscopic analysis. In kind it is functional, LN-229.
Data set [2] can be described thus: Solubility of the compound in ethanol. In kind it is physicochemical.
The nature of data set [3]: Solubility of the compound in isopropanol. In kind it is physicochemical.
Data set [4] in a line: Solubility of the compound in DMSO. The class given is physicochemical.
The nature of data set [5]: Solubility of the compound in chloroform. The class given is physicochemical.
The nature of data set [6]: Solubility of the compound in trifluoroacetic acid. The class given is physicochemical.
A short description of data set [7]: Solubility of the compound in CHCl3/TFA. The class given is physicochemical.
Data set [8] is described as follows: Solubility of the compound in DMSO/TFA. The class given is physicochemical.

In the case of `COc1cc(NC(=O)C2C(=O)NC(=O)NC2=O)cc(OC)c1OC`, the Activity in data set [1] was 100 µg/mL. Further, the solubility entry in data set [2] and in data set [3] was “Insoluble” throughout.

Take `CN1C(=O)NC(=O)C(C(=O)Nc2ccc3cc4ccccc4cc3c2)C1=O` (configuration not stated): the Activity in data set [1] was determined as 100 µg/mL.

Regarding `CN1C(=O)C(C(=O)Nc2ccc(Cl)c(Cl)c2)C(=O)N(C)C1=O`, the Activity in data set [1] turned out to be 100 µg/mL.

On to `O=C1NC(=O)C(C(=O)Nc2cc(Cl)cc(Cl)c2)C(=O)N1`, for which the solubility result in data set [2] and in data set [3] was “Insoluble” in each case.

As to `COc1ccc(NC(=O)C2C(=O)NC(=O)NC2=O)cc1`, the solubility result in data set [2] and in data set [3] was “Insoluble” each time.

Consider `CN1C(=O)C(C(=O)Nc2ccc3ccccc3c2)C(=O)N(C)C1=O`, for which the Activity in data set [1] turned out to be 100 µg/mL.

As to `CN1C(=O)C(C(=O)Nc2ccc(Cl)cc2Cl)C(=O)N(C)C1=O`, the Activity in data set [1] was found to be 100 µg/mL.

In the case of `O=C1NC(=O)C(C(=O)Nc2cc(Cl)ccc2Cl)C(=O)N1`, the solubility result in data set [2] and in data set [3] was “Insoluble” in each case.

As to `O=C1NC(=O)N(c2ccccc2)C(=O)C1C(=O)Nc1ccc(Br)cc1` (configuration not stated), the Activity in data set [1] was found to be 100 µg/mL.

As for `O=C1NC(=O)C(C(=O)Nc2ccc(O)cc2)C(=O)N1`, in data set [1], the Activity came to 100 µg/mL. Moreover, the solubility entry in data set [2] and in data set [3] was “Insoluble” each time.

Turning to `CN1C(=O)C(C(=O)Nc2ccc(Br)cc2)C(=O)N(C)C1=O`, in data set [1], the Activity came out at 100 µg/mL.

As for `CN1C(=O)C(C(=O)Nc2ccc(C(=O)O)cc2)C(=O)N(C)C1=O`, the Activity in data set [1] worked out at 100 µg/mL.

Consider `CN1C(=O)C(C(=O)Nc2ccc(-c3ccccc3)cc2)C(=O)N(C)C1=O`, for which the Activity in data set [1] turned out to be 100 µg/mL.

As for `O=C1NC(=O)C(C(=O)Nc2ccc([N+](=O)[O-])cc2)C(=O)N1`, the Activity in data set [1] turned out to be 100 µg/mL. Besides, the solubility entry in data set [2] and in data set [3] was “Insoluble” in each case.

As for `CN1C(=O)C(C(=O)Nc2cccc(I)c2)C(=O)N(C)C1=O`, the Activity in data set [1] turned out to be 100 µg/mL.

Turning to `O=C1NC(=O)C(C(=O)Nc2cccc(Cl)c2Cl)C(=O)N1`, the solubility entry in data set [2] and in data set [3] was “Insoluble” throughout.

As to `CN1C(=O)C(C(=O)Nc2ccccc2O)C(=O)N(C)C1=O`, in data set [1], the Activity worked out at 100 µg/mL.

As to `NC(=O)c1ccc(NC(=O)C2C(=O)NC(=O)NC2=O)cc1`, the solubility result in data set [2] and in data set [3] was “Insoluble” each time.

Regarding `CCOC(=O)c1ccc(NC(=O)C2C(=O)N(C)C(=O)N(C)C2=O)cc1`, the Activity in data set [1] is 100 µg/mL.

In the case of `O=C1NC(=O)C(C(=O)Nc2ccccc2)C(=O)N1`, the solubility entry in data set [2] and in data set [3] was “Insoluble” in each case.

On to `O=C1NC(=O)C(C(=O)Nc2ccc3ccccc3c2)C(=O)N1`, for which the Activity in data set [1] came to 100 µg/mL.

In the case of `CN1C(=O)C(C(=O)Nc2ccc([N+](=O)[O-])cc2)C(=O)N(C)C1=O`, in data set [1], the Activity was found to be 100 µg/mL.

In the case of `CN1C(=O)C(C(=O)Nc2ccc(O)cc2)C(=O)N(C)C1=O`, the Activity in data set [1] came out at 100 µg/mL.

Regarding `O=C1NC(=O)C(C(=O)Nc2cccc([N+](=O)[O-])c2)C(=O)N1`, the solubility result in data set [2] and in data set [3] was “Insoluble” each time.

`O=C1NC(=O)C(C(=O)Nc2ccc(F)cc2)C(=O)N1`: the solubility result in data set [2] and in data set [3] was “Insoluble” each time.

As for `COc1ccc(NC(=O)C2C(=O)NC(=O)N(c3ccccc3)C2=O)cc1` (configuration not stated), the Activity in data set [1] is 100 µg/mL.

In the case of `CN1C(=O)C(C(=O)Nc2ccccc2-c2ccccc2)C(=O)N(C)C1=O`, the Activity in data set [1] came to 100 µg/mL.

Take `O=C1NC(=O)N(c2ccccc2)C(=O)C1C(=O)Nc1ccc(I)cc1` (configuration not stated): in data set [1], the Activity was found to be 100 µg/mL.

`CN1C(=O)NC(=O)C(C(=O)Nc2cccc(O)c2)C1=O` (configuration not stated): the Activity in data set [1] is 100 µg/mL.

In the case of `O=C1NC(=O)N(c2ccccc2)C(=O)C1C(=O)Nc1ccc(Cl)cc1Cl` (configuration not stated), the Activity in data set [1] came to 100 µg/mL.

For the compound `N#Cc1ccc(NC(=O)NNC(=O)C2C(=O)NC(=O)NC2=O)cc1`, the solubility entry was “Insoluble” in data set [2]; “Insoluble” in data set [3]; “Insoluble” in data set [4]; “Insoluble” in data set [5]; “Soluble” in data set [6]; “Soluble” in data set [7]. Moreover, in data set [8], the solubility entry is “Soluble”.

As to `COc1ccc(NC(=O)C2C(=O)NC(=O)N(C)C2=O)cc1` (configuration not stated), the Activity in data set [1] was found to be 100 µg/mL.

As to `COc1cc(NC(=O)C2C(=O)NC(=O)N(c3ccccc3)C2=O)cc(OC)c1OC` (configuration not stated), in data set [1], the Activity stood at 100 µg/mL.

As to `O=C1NC(=O)N(c2ccccc2)C(=O)C1C(=O)Nc1cccc2ccccc12` (configuration not stated), the Activity in data set [1] stood at 100 µg/mL.

Turning to `O=C1NC(=O)N(c2ccccc2)C(=O)C1C(=O)Nc1nc2ccc([N+](=O)[O-])cc2s1` (configuration not stated), the Activity in data set [1] stood at 100 µg/mL.

Consider `CCOC(=O)c1ccc(NC(=O)C2C(=O)NC(=O)NC2=O)cc1`, for which, in data set [1], the Activity amounted to 100 µg/mL. Also, the solubility result in data set [2] and in data set [3] was “Insoluble” in each case.

Consider `O=C(O)c1ccc(NC(=O)C2C(=O)NC(=O)N(c3ccccc3)C2=O)cc1` (configuration not stated), for which, in data set [1], the Activity was 100 µg/mL.

Regarding `O=C1NC(=O)C(C(=O)NNC(=O)Nc2cccc(O)c2)C(=O)N1`, the solubility entry in data set [2] is reported as “Insoluble”; in data set [3] it was “Insoluble”; in data set [4], “Insoluble”; in data set [5], “Insoluble”; in data set [6], “Soluble”; in data set [7], “Soluble”. Also, in data set [8], the solubility result is “Soluble”.

On to `COc1ccc2nc(NC(=O)C3C(=O)NC(=O)N(c4ccccc4)C3=O)sc2c1` (configuration not stated), for which the Activity in data set [1] came to 100 µg/mL.

On to `O=C1NC(=O)C(C(=O)Nc2ccc(Br)cc2)C(=O)N1`, for which the solubility result in data set [2] and in data set [3] was “Insoluble” each time.

Take `O=C1NC(=O)C(C(=O)Nc2ccc(Cl)cc2)C(=O)N1`: the solubility result in data set [2] and in data set [3] was “Insoluble” in each case.

With `O=C1NC(=O)N(c2ccccc2)C(=O)C1C(=O)Nc1ccc2cc3ccccc3cc2c1` (configuration not stated), in data set [1], the Activity came to 100 µg/mL.

With `O=C1NC(=O)C(C(=O)Nc2ccc(I)cc2)C(=O)N1`, the solubility entry in data set [2] and in data set [3] was “Insoluble” throughout.

On to `CN1C(=O)C(C(=O)NNc2ccc([N+](=O)[O-])cc2)C(=O)N(C)C1=O`, for which, in data set [1], the Activity is 100 µg/mL.

Turning to `COc1ccc(NC(=O)C2C(=O)NC(=O)NC2=O)cc1OC`, the solubility result in data set [2] and in data set [3] was “Insoluble” throughout.

`CN1C(=O)C(C(=O)Nc2cccc3ccccc23)C(=O)N(C)C1=O`: the Activity in data set [1] came out at 100 µg/mL.

Turning to `O=C1NC(=O)N(c2ccccc2)C(=O)C1C(=O)Nc1ccccc1` (configuration not stated), in data set [1], the Activity came out at 100 µg/mL.

Regarding `CN1C(=O)C(C(=O)Nc2cc(Cl)ccc2Cl)C(=O)N(C)C1=O`, the Activity in data set [1] stood at 100 µg/mL.

Regarding `O=C1NC(=O)C(C(=O)NNC(=O)Nc2ccc(Cl)c(Cl)c2)C(=O)N1`, the solubility result is given as “Insoluble” in data set [2]; “Insoluble” in data set [3]; “Insoluble” in data set [4]; “Insoluble” in data set [5]; “Soluble” in data set [6]; “Soluble” in data set [7]. The solubility result in data set [8] is given as “Soluble”.

Regarding `Cc1ccc(NC(=O)C2C(=O)NC(=O)NC2=O)cc1C`, in data set [1], the Activity turned out to be 100 µg/mL. In addition, the solubility result in data set [2] and in data set [3] was “Insoluble” each time.

For the compound `CN1C(=O)C(C(=O)Nc2ccc3cc4ccccc4cc3c2)C(=O)N(C)C1=O`, the Activity in data set [1] came out at 100 µg/mL.

As to `CN1C(=O)NC(=O)C(C(=O)Nc2ccc(Cl)cc2)C1=O` (configuration not stated), in data set [1], the Activity turned out to be 100 µg/mL.

As to `O=C1NC(=O)C(C(=O)NNC(=O)Nc2ccc(O)cc2)C(=O)N1`, the solubility entry in data set [2] is on record as “Insoluble”; in data set [3], “Insoluble”; in data set [4] it was “Insoluble”; in data set [5], “Insoluble”; in data set [6], “Soluble”; in data set [7], “Soluble”. In addition, the solubility result in data set [8] is given as “Soluble”.

On to `CN1C(=O)C(C(=O)Nc2cccc(Cl)c2Cl)C(=O)N(C)C1=O`, for which, in data set [1], the Activity amounted to 100 µg/mL.

`O=C1NC(=O)C(C(=O)Nc2ccc(Cl)c(Cl)c2)C(=O)N1`: the solubility result in data set [2] and in data set [3] was “Insoluble” each time.

Take `O=C1NC(=O)C(C(=O)Nc2ccc(C(=O)O)cc2)C(=O)N1`: the solubility entry in data set [2] and in data set [3] was “Insoluble” throughout.

Consider `O=C1NC(=O)C(C(=O)NNC(=O)Nc2ccc(F)cc2)C(=O)N1`, for which the solubility entry in data set [2] is “Insoluble”; in data set [3], “Insoluble”; in data set [4], “Insoluble”; in data set [5] it was “Insoluble”; in data set [6], “Soluble”; in data set [7], “Soluble”. For the same compound, the solubility entry in data set [8] was “Soluble”.

On to `O=C1NC(=O)C(C(=O)Nc2cccc(O)c2)C(=O)N1`, for which the solubility result in data set [2] and in data set [3] was “Insoluble” each time.

As for `O=C1NC(=O)C(C(=O)Nc2cccc3ccccc23)C(=O)N1`, in data set [1], the Activity was found to be 100 µg/mL.

Regarding `CN1C(=O)C(C(=O)Nc2cccc(Br)c2)C(=O)N(C)C1=O`, the Activity in data set [1] came to 100 µg/mL.

Consider `O=C1NC(=O)C(C(=O)Nc2ccc(Cl)cc2Cl)C(=O)N1`, for which the solubility result in data set [2] and in data set [3] was “Insoluble” throughout.

Turning to `CN1C(=O)C(C(=O)Nc2cccc(O)c2)C(=O)N(C)C1=O`, in data set [1], the Activity is 100 µg/mL.

Consider `O=C1NC(=O)C(C(=O)Nc2cccc(Br)c2)C(=O)N1`, for which the Activity in data set [1] turned out to be 100 µg/mL. The solubility result in data set [2] and in data set [3] was “Insoluble” each time.

Take `O=C1NC(=O)C(C(=O)Nc2ccc3cc4ccccc4cc3c2)C(=O)N1`: the Activity in data set [1] worked out at 100 µg/mL.

The record behind these values is ChEMBL document CHEMBL3862023, “Synthesis of N-aryl and N-arylcarbamoylamino derivatives of 1,3-diazinane-5-carboxamide and their activity against glioblastoma LN-229 cell line” (Bioorg Med Chem, 2016).
